Consider six molecules from patent US11542234B2, “2-alkoxy-6-[18F]fluoronicotinoyl substituted lys-c(O)-glu derivatives as efficient probes for imaging of PSMA expressing tissues” (Universität zu Köln, priority 2018, dated 2023).

The test system of one data set is PSMA^+ LNCaP C4-2 cells. Description: Cellular uptake in PSMA positive LNCaP C4-2 cells. The data set is classed as cell-based. The note with it: for cellular uptake under inhibition with 2-PMPA: in the presence of 2-PMPA (100 μM/well). Here is the method: (§1) The PSMA specificity of the tracer uptake in LNCaP C4-2 was confirmed by complete inhibition with 2-PMPA (≤0.1% ID/10^5 cells). The enrichment of both tracers in PSMA^− PC3 cells was negligible (≤0.1% ID/10^5 cells).
(§2) PSMA^− PC-3 cells were cultured in RPMI-1640 medium supplemented with FBS (10%) and penicillin/streptomycin (1%). PSMA* LNCaP C4-2 cells were cultured in a mixture of DMEM: Ham's F-12K (Kaighn's) mediums (4:1) supplemented with FBS (5%), NaHCO3(3 g/L), insulin (5 μg/mL), triiodothyronine ([…]), transferrin (5 μg/mL), biotin (0.25 μg/ml) and adenine (25 μg/mL). Both cell lines were grown in 75 mL flasks containing 10 mL of the culture medium in a humidified atmosphere of 5% CO2/95% air at 37° C. for 4-5 days until they reached 80-90% confluency. Cells were seeded into 12-well plates (1×10^5 cells/well containing 1 mL medium) 24 h before the beginning of the cellular uptake experiments.
2-(Phosphonomethyl)pentanedioic acid (2-PMPA; 100 μM/well) was used for blocking studies. Thereafter, the cells were washed two times with medium (1 mL), trypsinized, harvested and the accumulated radioactivity was measured in a gamma counter (Wizard 1470, PerkinElmer, Massachusetts, USA). The cellular uptake of the novel PSMA-selective candidates and [^18F]DCFPyL obtained in experiments performed in parallel were compared. Each cellular uptake experiment was carried out in triplicate.

In data set [1] the target is T1, PSMA (Rattus norvegicus, UniProt P70627).
T1 construct: ganglia as natural PSMA-expressing tissues remain constant over a long time; from tissue; host or cells: healthy Long Evans rats in vivo
Description: PET study of PSMA-specific tracers in healthy rats. The data set is classed as in vivo. The note with it: for Bone % ID / Liver % ID / SCG % ID / SCG signal-to-noise ratio / signal-to-noise ratio (SCG), printed in text with: PET 60-120 min after injection; for SCG signal-to-noise ratio: background dorsal from cervical vertebral column. The source says: Ganglia represent an ideal tissue for the evaluation of PSMA binding imaging probes. Having a size of 1-2 mm these structures are sufficiently small to imitate metastases in a very early stage. Ganglionic PSMA is expressed by satellite glial cells, which envelop the neuronal cell bodies of the trigeminal ganglion,^[25] spinal dorsal root ganglia and ganglia of the autonomic nervous system.^[26] […] Rat PSMA comprises 752 amino acids (vs. 750 in humans), and has about 91% homology to the human PSMA. Importantly, all amino acid residues of the active site are essentially the same as those in the human homologue with the only exception of Gly^548 in the human and Ser^548 in the rat protein, respectively^[28]
Conditions: Uptake of different PSMA-specific tracers in healthy rats measured by PET. Conditions: PET scanner (Focus 220, Siemens); 57-71 MBq tracer was injected. PET scans started 60 min after injection and continued for 60 min. % ID was determined by dividing each image by the injected dose and multiplying it by body weight. […] Background activity for calculation of signal-to-noise ratio was measured dorsal from the cervical vertebral column with a 390 mm^3 VOI.
Animals: Experiments were carried out in accordance with the EU directive 2010/63/EU for animal experiments and the German Animal Welfare Act (TierSchG, 2006), and were approved by regional authorities (LANUV NRW). Long Evans rats (250-590 g body weight) were used for this study. Rats were housed in pairs in individually ventilated cages (NexGen EcoFlo, cages RAT1800 with 1805 cm^2 floor space and 41 cm height; Allentown Inc., Allentown, N.J., USA) under controlled ambient conditions (22±1° C. and 55±5% relative humidity) on an inversed 12 hour light/dark schedule (lights on 9:00 p.m.-9:00 a.m.). Food and water were available at all times. Three rats received two, and one rat received three different tracers. The other seven rats were measured with one tracer only. Each tracer was measured in three animals.
PET-imaging: Prior to PET measurements with PET probes, animals were anesthetized (initial dosage: 5% isoflurane in 02/air (3:7), then reduction to 2%), and a catheter for tracer injection was inserted into the lateral tail vein. Rats were placed on an animal holder (Medres, Cologne, Germany), and fixed with a tooth bar in a respiratory mask. Dynamic PET scans in a list mode were performed using a Focus 220 micro PET scanner (CTI-Siemens, Germany) with a resolution at a center of field of view of 1.4 mm. Data acquisition started with tracer injection (66±14 MBq in 0.5 mL i.v.), continued for 120 min and was followed by a 10 min transmission scan using a ^57Co point source. For blocking studies 2-(phosphonomethyl)pentanedioic acid (2-PMPA; 23 mg/kg) was added directly to a radiotracer solution. Breathing rate was monitored and kept around 60/min by adjusting isoflurane concentration (1.5-2.5%). Body temperature was maintained at 37° C. by a feedback-controlled system. Following Fourier rebinning, data were reconstructed using an iterative OSEM3D/MAP procedure78 including attenuation and decay correction in two different ways: 1) 28 frames (2×1 min; 2×2 min, 6×4 min, 18×5 min) for compilation of regional time activity curves; 2) 4 frames (4×30 min) for visual display. Resulting voxel sizes were always 0.38×0.38×0.79 mm.
Data analysis was performed using the software VINCI.79 Images were Gauss filtered (1 mm FWHM), and % ID was determined by dividing each image by the injected dose and multiplying the result by body weight times 100. Mean % ID values were extracted from each of the 28 frames and plotted over time.

For a further data set, the system named is PSMA^− PC-3 cells. Description: Cellular uptake in PSMA negative PC3 cells. The data set is classed as cell-based. Here is the method:
as §1, §2
The corresponding PSMA specific PET probe was added to the cells (100-150 kBq/well) and the cells were incubated at 37° C. for 1 and 2 h. 2-(Phosphonomethyl)pentanedioic acid (2-PMPA; 100 μM/well) was used for blocking studies. Thereafter, the cells were washed two times with medium (1 mL), trypsinized, harvested and the accumulated radioactivity was measured in a gamma counter (Wizard 1470, PerkinElmer, Massachusetts, USA). […]

For data set [2] the following is noted: meta-analysis of data of 251 patients, detecting recurrent PCa; cited from earlier work.
Data set [3] deals with T2, PSMA (Homo sapiens, UniProt Q04609).
T2 construct: from tissue; host or cells: patients with prostate cancer or biochemical recurrence, in vivo PET/CT
Kind of data set: Pilot PET/CT study in 10 patients, comparison with [68Ga]Ga-PSMA-HBED-CC. The data set is classed as in vivo. Here is the method: Owing to the favorable imaging properties of 2-MeO-[^18F]PSMA in rats a small pilot study with this tracer in 10 patients was conducted. All patients were examined with both [^68Ga]Ga-PSMA-HBED-CC and 2-MeO-[^18F]PSMA PET CT. In each case, both PET/CT scans were carried out within three weeks. […] In four patients, at least one additional PSMA-positive lesion using 2-MeO-[^18F]PSMA compared to the corresponding [^68Ga]Ga-PSMA-HBED-CC image was identified (FIG. 6B). In one patient inconspicuous in the [^68Ga]Ga-PSMA-HBED-CC scan, a PSMA-positive lesion was discovered by 2-MeO-[^18F]PSMA PET/CT (FIG. 6C).
(§3) The study was conducted in accordance with the Institutional Review Board. All patients gave written informed consent to PET imaging and inclusion of their data in a retrospective analysis. All procedures were performed in compliance with the regulations of the responsible local authorities (District Administration of Cologne, Germany).
(§4) All measurements with [^68Ga]Ga-PSMA-HBED-CC and [^18F]-2-MeO-PSMA were carried out as described in the literature.^[14a, 15]

Data set [4] concerns the target T2, PSMA. Description: PSMA-PET imaging of patients with biochemical recurrence of prostate cancer. The data set is classed as in vivo. The note with it: 124 patients with biochemical recurrence (BCR) of PCa. The procedure:
In the subsequent larger study, 124 patients with biochemical recurrence (BCR) of PCa were examined.
as §3, §4

The target in data set [5] is T2, PSMA. The note with it: determined earlier, for comparison; cited from earlier work.
The mark [6] stands for this setting: 2 h incubation, 2-MeO-[18F]PSMA and [18F]DCFPyL in parallel (FIG. 4A).
Where [7] appears, read: 2 h incubation, 4-MeO-[18F]PSMA and [18F]DCFPyL in parallel (FIG. 4B).
Where [8] appears, read: 4 h incubation, 2-MeO-[18F]PSMA and [18F]DCFPyL in parallel (FIG. 4A).
Where [9] appears, read: 4 h incubation, 4-MeO-[18F]PSMA and [18F]DCFPyL in parallel (FIG. 4B).
Where [10] appears, read: co-application of 2-PMPA (23 mg/kg).

Like-named read-outs stand apart in the source and are kept apart here. Where only a bound is given, the exact number is not on record here.

T1 sequence (P70627 whole entry): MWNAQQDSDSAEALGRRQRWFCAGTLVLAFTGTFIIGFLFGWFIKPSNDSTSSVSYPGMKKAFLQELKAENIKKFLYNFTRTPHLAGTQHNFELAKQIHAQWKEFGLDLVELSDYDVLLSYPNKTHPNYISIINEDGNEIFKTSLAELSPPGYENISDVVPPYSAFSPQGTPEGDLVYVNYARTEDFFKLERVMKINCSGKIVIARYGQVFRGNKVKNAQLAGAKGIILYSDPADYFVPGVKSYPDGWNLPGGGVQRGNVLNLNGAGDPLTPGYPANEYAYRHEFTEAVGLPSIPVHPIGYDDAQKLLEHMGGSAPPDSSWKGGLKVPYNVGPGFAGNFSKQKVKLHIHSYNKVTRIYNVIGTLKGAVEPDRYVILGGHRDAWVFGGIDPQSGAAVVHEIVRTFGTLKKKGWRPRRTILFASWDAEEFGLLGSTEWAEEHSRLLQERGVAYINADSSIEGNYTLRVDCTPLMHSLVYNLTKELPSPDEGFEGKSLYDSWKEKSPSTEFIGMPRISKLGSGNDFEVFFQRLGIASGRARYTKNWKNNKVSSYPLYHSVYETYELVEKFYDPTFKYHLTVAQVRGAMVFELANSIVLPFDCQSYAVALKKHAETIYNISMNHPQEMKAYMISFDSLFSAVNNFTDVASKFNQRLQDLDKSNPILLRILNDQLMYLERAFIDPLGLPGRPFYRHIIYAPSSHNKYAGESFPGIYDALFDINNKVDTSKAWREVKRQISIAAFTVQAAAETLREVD
T2 sequence (Q04609 whole entry): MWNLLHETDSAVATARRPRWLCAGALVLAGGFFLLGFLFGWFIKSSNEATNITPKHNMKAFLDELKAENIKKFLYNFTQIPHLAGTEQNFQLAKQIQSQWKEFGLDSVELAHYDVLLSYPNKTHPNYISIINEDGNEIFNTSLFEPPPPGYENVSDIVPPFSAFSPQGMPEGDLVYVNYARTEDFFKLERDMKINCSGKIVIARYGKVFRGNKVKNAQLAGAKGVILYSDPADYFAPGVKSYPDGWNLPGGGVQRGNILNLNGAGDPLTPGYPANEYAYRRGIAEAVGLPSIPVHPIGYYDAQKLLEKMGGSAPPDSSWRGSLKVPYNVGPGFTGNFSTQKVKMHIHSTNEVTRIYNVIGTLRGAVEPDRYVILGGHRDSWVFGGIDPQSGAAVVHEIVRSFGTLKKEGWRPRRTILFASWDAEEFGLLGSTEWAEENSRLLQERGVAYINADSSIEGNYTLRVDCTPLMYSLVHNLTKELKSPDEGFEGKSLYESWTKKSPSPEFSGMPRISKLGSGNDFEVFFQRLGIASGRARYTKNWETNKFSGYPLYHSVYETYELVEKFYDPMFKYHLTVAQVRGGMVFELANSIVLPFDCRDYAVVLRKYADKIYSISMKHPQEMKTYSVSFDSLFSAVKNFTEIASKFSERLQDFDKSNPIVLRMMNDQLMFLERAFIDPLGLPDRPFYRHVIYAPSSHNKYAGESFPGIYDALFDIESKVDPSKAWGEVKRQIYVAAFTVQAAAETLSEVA

Consider `O=C(O)CC[C@H](NC(=O)N[C@@H](CCCCNC(=O)c1ccc([18F])nc1)C(=O)O)C(=O)O` [[^18F]DCFPyL], for which the cellular uptake in the data set with PSMA^+ LNCaP C4-2 cells (setting [6]) worked out at 1.55±0.05 % ID/10^5 cells; in the data set on PSMA^+ LNCaP C4-2 cells (setting [7]), 1.53±0.03 % ID/10^5 cells; in the data set on PSMA^+ LNCaP C4-2 cells (setting [8]), 3.1±0.03 % ID/10^5 cells; in the data set with PSMA^+ LNCaP C4-2 cells (setting [9]) it was 3.16±0.01 % ID/10^5 cells. For the same molecule, the “uptake in the ganglion of the trigeminal nerve” value on PSMA [1] (60-120 min after injection) was 37.9±9.9 % ID. In addition, the “Bone % ID” value at PSMA [1] amounted to 12.4 ± 4.3 % ID. Moreover, the “Liver % ID” value at PSMA [1] is reported as 65.3 ± 21.7 % ID; at PSMA [1] (setting [10]) it was “remained at the same level”. Also, the “SCG % ID” value at PSMA [1] (setting [10]) was determined as 4.6±1.8 % ID; on PSMA [1] (superior cervical ganglion) it was 20.2 ± 5.8 % ID.

With `COc1cc([18F])ncc1C(=O)NCCCC[C@H](NC(=O)N[C@@H](CCC(=O)O)C(=O)O)C(=O)O` [4-MeO-[^18F]PSMA], the cellular uptake in the data set on PSMA^+ LNCaP C4-2 cells (setting [7]) is on record as 0.79±0.04 % ID/10^5 cells. Moreover, the cellular uptake with PSMA^+ LNCaP C4-2 cells (setting [9]) was found to be 0.90±0.04 % ID/10^5 cells. For the same molecule, the “cellular uptake under inhibition with 2-PMPA” value in the data set on PSMA^+ LNCaP C4-2 cells is “completely blocked”. Further, the “enrichment in PSMA^− PC3 cells” value in the data set with PSMA^− PC-3 cells is on record as “very low”. Besides, on PSMA [1], the “Bone % ID” value is reported as 19.2±2.1 % ID, the “Liver % ID” value amounted to 29.0±7.2 % ID and the SCG signal-to-noise ratio is recorded as 4.6±1.3. The “SCG % ID” value at PSMA [1] (superior cervical ganglion) stood at 14.4±2.6 % ID.

In the case of `O=C(O)CC[C@H](NC(=O)N[C@@H](CCCCNC(=O)[C@H](Cc1ccc2ccccc2c1)NC(=O)c1ccc(CNC(=O)[C@H](CCC(=O)O)NC(=O)[C@H](CCC(=O)O)NC(=O)c2ccc([18F])nc2)cc1)C(=O)O)C(=O)O` [[^18F]PSMA-1007], on PSMA [1], the “Bone % ID” value was 33.2±9.5 % ID; the “Liver % ID” value was 50.7 ± 4.3 % ID; the signal-to-noise ratio (SCG), printed in text with was 6.2 ± 1.9; the SCG signal-to-noise ratio worked out at 6.2 ± 1.9.

In the case of `N[C@]1(C(=O)O)C[C@@H]([18F])C1` [[^18F]FACBC, anti-1-amino-3-[^18F]fluorocyclobutane-1-carboxylic acid], in data set [2], the sensitivity is given as 87% and the specificity is reported as 66%.

In the case of `COc1nc([18F])ccc1C(=O)NCCCC[C@H](NC(=O)N[C@@H](CCC(=O)O)C(=O)O)C(=O)O` [2-MeO-[^18F]PSMA], the cellular uptake in the data set with PSMA^+ LNCaP C4-2 cells (setting [6]) is 2.03±0.03 % ID/10^5 cells. Besides, the cellular uptake in the data set with PSMA^+ LNCaP C4-2 cells (setting [8]) is given as 3.31±0.01 % ID/10^5 cells. Further, the “cellular uptake under inhibition with 2-PMPA” value in the data set with PSMA^+ LNCaP C4-2 cells is no more than 0.1 % ID/10^5 cells. On PSMA [1], the signal-to-noise ratio (SCG), printed in text with turned out to be 8.2 ± 1.7 and the SCG signal-to-noise ratio amounted to 8.2 ± 1.7. In addition, the “SCG % ID” value at PSMA [1] (superior cervical ganglion) came out at 31.3±10.5 % ID. For the same molecule, the “patients inconspicuous in the [68Ga]Ga-PSMA-HBED-CC scan in whom a PSMA-positive lesion was discovered” value on PSMA [3] is on record as “one”. Also, the “patients with at least one additional PSMA-positive lesion compared to the corresponding [68Ga]Ga-PSMA-HBED-CC image” value on PSMA [3] (both PET/CT scans within three weeks) is reported as “four”. In addition, at PSMA [4], the sensitivity came out at 83.0%.

On to `O=C([O-])CN(CCN(CC(=O)[O-])Cc1cc(CCC(=O)NCCCCCC(=O)NCCCC[C@H](NC(=O)N[C@@H](CCC(=O)O)C(=O)O)C(=O)O)ccc1[O-])Cc1cc(CCC(=O)O)ccc1[O-].[68Ga+3].[OH3+]` [[^68Ga]Ga-PSMA-HBED-CC], for which the “Bone % ID” value at PSMA [1] came out at 18.5 ± 0.6 % ID. Further, on PSMA [1], the “Liver % ID” value came to 47.0 ± 10.3 % ID. Besides, the SCG signal-to-noise ratio at PSMA [1] stood at 4.5±0.1; on PSMA [1] (listed as [^68Ga]PSMA-HBED-CC) it was 4.5 ± 0.1. Besides, the “SCG % ID” value is on record as 41.0±3.4 % ID on PSMA [1] (superior cervical ganglion) and 41.0 ± 3.4 % ID at PSMA [1] (superior cervical ganglion, listed as [^68Ga]PSMA-HBED-CC). In addition, the sensitivity at PSMA [5] is on record as 74.2%.
